The values that follow come from patent US9695178B2, “6-(2-pyridyl)-7,8-dihydro-5H-pyrido[4,3-D]pyrimidine analogs as hedgehog pathway signaling inhibitors and therapeutic applications thereof” (Suzhou Yunxuan Yiyao Keji Youxian Gongsi, priority 2013, dated 2017).

For the test, the target named is Smo (Homo sapiens, UniProt Q99835). The test can be described thus: Bodipy-Cyclopamine Binding Assay (confirmation assay), Hek293-SMO cells.

A value given as a limit tells only on which side of the number the result lay.

Sequence of Smo (Q99835 28-787): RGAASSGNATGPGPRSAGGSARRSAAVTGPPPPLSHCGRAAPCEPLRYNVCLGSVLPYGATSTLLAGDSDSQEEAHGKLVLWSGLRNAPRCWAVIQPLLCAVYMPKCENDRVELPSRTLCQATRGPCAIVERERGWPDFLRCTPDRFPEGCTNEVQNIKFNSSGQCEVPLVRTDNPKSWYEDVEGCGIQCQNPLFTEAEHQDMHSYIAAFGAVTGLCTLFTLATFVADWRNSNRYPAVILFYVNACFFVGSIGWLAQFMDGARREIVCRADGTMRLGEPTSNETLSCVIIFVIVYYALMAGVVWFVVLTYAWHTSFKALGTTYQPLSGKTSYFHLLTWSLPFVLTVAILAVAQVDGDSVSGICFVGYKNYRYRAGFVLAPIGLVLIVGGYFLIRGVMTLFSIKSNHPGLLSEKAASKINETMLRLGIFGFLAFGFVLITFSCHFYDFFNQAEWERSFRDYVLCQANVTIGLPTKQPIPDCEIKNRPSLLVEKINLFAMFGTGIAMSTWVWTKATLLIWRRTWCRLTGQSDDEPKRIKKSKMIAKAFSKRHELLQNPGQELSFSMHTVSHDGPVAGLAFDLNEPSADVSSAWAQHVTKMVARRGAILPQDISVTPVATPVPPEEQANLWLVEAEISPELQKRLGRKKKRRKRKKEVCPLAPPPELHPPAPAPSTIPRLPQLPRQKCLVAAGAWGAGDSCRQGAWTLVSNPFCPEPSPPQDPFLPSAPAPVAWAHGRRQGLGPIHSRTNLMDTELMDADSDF
Experimental: The confirmation assay is based on Bodipy-Cyclopamine Binding Assay:
Bodipy-Cyclopamine binding assay is a fluorescence based assay used to analysis the binding of Smo agonists. […] Bodipy-Cyclopamine was purchased from Toronto Research Chemicals and dissolved in methanol.
Hek293-SMO cells were plated in 96-well-plate (3340, Corning), the final cell concentration is 15,000 cells/well in 100 ul 1% serum-containing DMEM. The plates were incubated in 37 degree for additional 48 hours.
Hek293-SMO plate were washed with PBS and fixed with 4% paraformaldehyde (PFA)/PBS for 20 min at room temperature. After removing the PFA buffer, the cells were incubated with DAPI/PBS (5 ug/mL) for 10 min and followed by twice wash with PBS. After wash, cells were incubated for 2 h at room temperature in binding buffer (HBSS W/O Ca^2+ and Mg^2+) containing 100 nM bodipy-cyclopamine and compounds over a range of concentrations from 0-10 μM for competitive binding. After incubation, the cells were washed twice with the PBS. The fluorescence images were automatically captured and analyzed by a high content fluorescence imaging system (Arrayscan VTI, Thermo). GDC-0449 was used as reference compound to normalize the data. IC50 values were calculated with GraphPad Prism software using the sigmoidal dose-response function. The Ki was calculated following the Cheng-Prusoff equation, as Ki=IC50/[1+[bodipy-cyclopamine]/Kd)].

What is called IC50 is the concentration at which inhibition is half-maximal. Low values mean inhibition by little substance, high ones a need for much substance. `Clc1cnc(N2CCc3nc(NC4CC4)ncc3C2)cc1-c1ccc2ccccc2n1` [Compound A-112, 6-(5-chloro-4-(quinolin-2-yl)pyridin-2-yl)-N-cyclopropyl-5,6,7,8-tetrahydropyrido-[4,3-d]pyrimidin-2-amine] displayed an IC50 of 113 nM. Still for that read-out and setting: the figure for `Clc1cnc(N2CCc3nc(NC4CC4)ncc3C2)cc1-c1ccccn1` [Compound A-113, 6-(5′-chloro-2,4′-bipyridin-2′-yl)-N-cyclopropyl-5,6,7,8-tetrahydropyrido-[4,3-d]pyrimidin-2-amine] is 470 nM; for `FC(F)(F)c1ccc(-c2cc(N3CCc4nc(NC5CC5)ncc4C3)ncc2Cl)nc1` [Compound A-114, 6-(5′-chloro-5-(trifluoro-methyl)-2,4′-bipyridin-2′-yl)-N-cyclopropyl-5,6,7,8-tetrahydro-pyrido-[4,3-d]pyrimidin-2-amine] it is more than 1000 nM. The compound `Clc1cnc(N2CCc3nc(NC4CC4)ncc3C2)cc1-c1ncccn1` [Compound A-115, 6-(5-chloro-4-(pyrimidin-2-yl)pyridin-2-yl)-N-cyclopropyl-5,6,7,8-tetrahydropyrido[4,3-d]pyrimidin-2-amine] displayed an IC50 of more than 1000 nM. On the same count and under the same terms, the value for `Clc1cnc(N2CCc3nc(NC4CC4)ncc3C2)cc1-c1cnccn1` [Compound A-116, 6-(5-chloro-4-(pyrazin-2-yl)pyridin-2-yl)-N-cyclopropyl-5,6,7,8-tetrahydropyrido[4,3-d]pyrimidin-2-amine] was 235 nM; that for `Clc1cnc(N2CCc3nc(NC4CC4)ncc3C2)cc1-c1nccs1` [Compound A-117, 6-(5-chloro-4-(thiazol-2-yl)pyridin-2-yl)-N-cyclopropyl-5,6,7,8-tetrahydropyrido[4,3-d]pyrimidin-2-amine] was 169 nM. For the compound `Clc1cnc(N2CCc3nc(NC4CC4)ncc3C2)cc1-c1cccnc1` [Compound A-118, 6-(5′-chloro-3,4′-bipyridin-2′-yl)-N-cyclopropyl-5,6,7,8-tetrahydro-pyrido-[4,3-d]pyrimidin-2-amine], the IC50 was more than 1000 nM. Usually Kd stands for a measure of binding affinity in units of concentration. Turning to `CC1=C2CC3C(CC=C4C[C@@H](O)CCC43C)C2CCC12O[C@@H]1CC(C)CN(CCNC(=O)CCCCCNC(=O)CCC3=[N+]4C(=Cc5c(C)cc(C)n5[B-]4(F)F)C=C3)C1C2C` (some centres unmarked) [bodipy-cyclopamine, reference compound], the Kd (read-out: Kd of bodipy-cyclopamine for WT-Smo, used in the Cheng-Prusoff equation) is 3.5 ± 0.8 nM.
